Measurements from article PMC9732253, “Inhibition of the Phosphatidylinositol-3 Kinase Pathway Using Bimiralisib in Loss-of-Function NOTCH1-Mutant Head and Neck Cancer” (The Oncologist, 2022).

Settings: n = 8
Method: All patients received 140 mg bimiralisib (PQR309) orally once daily on 2 consecutive days followed by 5 days without treatment weekly until unacceptable toxicity, tumor progression, patient request for withdrawal, investigator judgment, or death.
Radiologic tumor assessments were performed using computed tomography at baseline and every 6 weeks. Safety was continuously monitored.

For `Nc1cc(C(F)(F)F)c(-c2nc(N3CCOCC3)nc(N3CCOCC3)n2)cn1` [Bimiralisib, 5-(4,6-dimorpholino-1,3,5-triazin-2-yl)-4-(trifluoromethyl)pyridin-2-amine], the “Chest pain, Grade 3/4, patients” value was 0 n (%), the “Chest pain, Grade 3/4, total number of events” value was 0 and the “Confusional state, Grade 1, patients” value was 2 (25.0) n (%). The “Confusional state, Grade 1, total number of events” value was 2, the “Confusional state, Grade 2, patients” value was 0 n (%) and the “Confusional state, Grade 2, total number of events” value was 0. For the same molecule, the “Confusional state, Grade 3/4, patients” value was 0 n (%), the “Confusional state, Grade 3/4, total number of events” value was 0 and the “Cough, Grade 1, patients” value was 1 (12.5) n (%). The “Cough, Grade 1, total number of events” value was 1, the “Cough, Grade 2, patients” value was 0 n (%) and the “Cough, Grade 2, total number of events” value was 0. For the same molecule, the “Cough, Grade 3/4, patients” value was 0 n (%), the “Cough, Grade 3/4, total number of events” value was 0 and the “Decreased appetite, Grade 1, patients” value was 0 n (%). The “Decreased appetite, Grade 1, total number of events” value was 0, the “Decreased appetite, Grade 2, patients” value was 1 (12.5) n (%) and the “Decreased appetite, Grade 2, total number of events” value was 1. The “Decreased appetite, Grade 3/4, patients” value was 0 n (%), the “Decreased appetite, Grade 3/4, total number of events” value was 0 and the “Dehydration, Grade 1, patients” value was 0 n (%). The “Dehydration, Grade 1, total number of events” value was 0, the “Dehydration, Grade 2, patients” value was 1 (12.5) n (%) and the “Dehydration, Grade 2, total number of events” value was 1. For the same molecule, the “Dehydration, Grade 3/4, patients” value was 0 n (%), the “Dehydration, Grade 3/4, total number of events” value was 0 and the “Diarrhea, Grade 1, patients” value was 0 n (%). The “Diarrhea, Grade 1, total number of events” value was 0, the “Diarrhea, Grade 2, patients” value was 1 (12.5) n (%) and the “Diarrhea, Grade 2, total number of events” value was 1. For the same molecule, the “Diarrhea, Grade 3/4, patients” value was 0 n (%), the “Diarrhea, Grade 3/4, total number of events” value was 0 and the “Disease progression, Grade 1, patients” value was 0 n (%). For the same molecule, the “Disease progression, Grade 1, total number of events” value was 0, the “Disease progression, Grade 2, patients” value was 0 n (%) and the “Disease progression, Grade 2, total number of events” value was 0. The “Disease progression, Grade 3/4, patients” value was 1 (12.5) n (%), the “Disease progression, Grade 3/4, total number of events” value was 1 and the “Dry skin, Grade 1, patients” value was 1 (12.5) n (%). The “Dry skin, Grade 1, total number of events” value was 1, the “Dry skin, Grade 2, patients” value was 0 n (%) and the “Dry skin, Grade 2, total number of events” value was 0. The “Dry skin, Grade 3/4, patients” value was 0 n (%), the “Dry skin, Grade 3/4, total number of events” value was 0 and the “Dysarthria, Grade 1, patients” value was 1 (12.5) n (%). For the same molecule, the “Dysarthria, Grade 1, total number of events” value was 1, the “Dysarthria, Grade 2, patients” value was 0 n (%) and the “Dysarthria, Grade 2, total number of events” value was 0. The “Dysarthria, Grade 3/4, patients” value was 0 n (%), the “Dysarthria, Grade 3/4, total number of events” value was 0 and the “Ear and labyrinth disorders, Grade 1, patients” value was 2 (25.0) n (%). For the same molecule, the “Ear and labyrinth disorders, Grade 1, total number of events” value was 2, the “Ear and labyrinth disorders, Grade 2, patients” value was 0 n (%) and the “Ear and labyrinth disorders, Grade 2, total number of events” value was 0. For the same molecule, the “Ear and labyrinth disorders, Grade 3/4, patients” value was 0 n (%), the “Ear and labyrinth disorders, Grade 3/4, total number of events” value was 0 and the “Ear pain, Grade 1, patients” value was 1 (12.5) n (%). For the same molecule, the “Ear pain, Grade 1, total number of events” value was 1, the “Ear pain, Grade 2, patients” value was 0 n (%) and the “Ear pain, Grade 2, total number of events” value was 0. For the same molecule, the “Ear pain, Grade 3/4, patients” value was 0 n (%), the “Ear pain, Grade 3/4, total number of events” value was 0 and the “Eye disorder, Grade 1, patients” value was 1 (12.5) n (%). The “Eye disorder, Grade 1, total number of events” value was 1, the “Eye disorder, Grade 2, patients” value was 0 n (%) and the “Eye disorder, Grade 2, total number of events” value was 0. For the same molecule, the “Eye disorder, Grade 3/4, patients” value was 0 n (%), the “Eye disorder, Grade 3/4, total number of events” value was 0 and the “Eye disorders, Grade 1, patients” value was 1 (12.5) n (%). The “Eye disorders, Grade 1, total number of events” value was 1, the “Eye disorders, Grade 2, patients” value was 0 n (%) and the “Eye disorders, Grade 2, total number of events” value was 0. For the same molecule, the “Eye disorders, Grade 3/4, patients” value was 0 n (%), the “Eye disorders, Grade 3/4, total number of events” value was 0 and the “Fatigue, Grade 1, patients” value was 2 (25.0) n (%). The “Fatigue, Grade 1, total number of events” value was 2, the “Fatigue, Grade 2, patients” value was 1 (12.5) n (%) and the “Fatigue, Grade 2, total number of events” value was 1. The “Fatigue, Grade 3/4, patients” value was 0 n (%), the “Fatigue, Grade 3/4, total number of events” value was 0 and the “Gait disturbance, Grade 1, patients” value was 1 (12.5) n (%). For the same molecule, the “Gait disturbance, Grade 1, total number of events” value was 1, the “Gait disturbance, Grade 2, patients” value was 0 n (%) and the “Gait disturbance, Grade 2, total number of events” value was 0. For the same molecule, the “Gait disturbance, Grade 3/4, patients” value was 0 n (%), the “Gait disturbance, Grade 3/4, total number of events” value was 0 and the “Gastroesophageal reflux disease, Grade 1, patients” value was 1 (12.5) n (%). The “Gastroesophageal reflux disease, Grade 1, total number of events” value was 1, the “Gastroesophageal reflux disease, Grade 2, patients” value was 0 n (%) and the “Gastroesophageal reflux disease, Grade 2, total number of events” value was 0. The “Gastroesophageal reflux disease, Grade 3/4, patients” value was 0 n (%), the “Gastroesophageal reflux disease, Grade 3/4, total number of events” value was 0 and the “Gastrointestinal disorders, Grade 1, patients” value was 2 (25.0) n (%). For the same molecule, the “Gastrointestinal disorders, Grade 1, total number of events” value was 2, the “Gastrointestinal disorders, Grade 2, patients” value was 3 (37.5) n (%) and the “Gastrointestinal disorders, Grade 2, total number of events” value was 5. The “Gastrointestinal disorders, Grade 3/4, patients” value was 0 n (%), the “Gastrointestinal disorders, Grade 3/4, total number of events” value was 0 and the “General disorders and administration site conditions, Grade 1, patients” value was 5 (62.5) n (%).
